In patent US6277867A, “Pesticide compounds, compositions and process for the preparation thereof” (priority 1995, dated 2001):
Read-outs that look alike come from different tables or passages of the source.

Columns and labels:
[1] = test system: cotton bollworm (Helicoverpa armigera); experiment: Synergist spectrum on cotton bollworm, topical; format: in vivo
Procedure: (§1) Investigation of Synergist Spectrum on House Fly (Musca domestica) and Cotton Bollworm (Helicoverpa armigera) Following Topical Administration
(§2) Synerzistic activities of materials No. 279 and 599 of the present invention for various active ingredients were determined on house fly (Musca domestica) and cotton bollworm (Helicoverpa armigera) using methods of treatments as described in biological Examples 1 and 2. For the active ingredients ISO common names are given (see: Pesticide Manual 1994).

[2] = test system: cotton bollworm (Helicoverpa armigera); experiment: Synergistic activity on cotton bollworm following topical application; settings: in vivo
Procedure: Investigation of Synergistic Activity on Cotton Bollworm (Helicoverpa armigera) Following Topical Application
Treatment was performed similarity as described in Example 1. but L2 stadium grubs of cotton bollworms (Helicoverpa armigera) were treated as test animals. From the 24 hour dose--mortality data the LD50 (ng/grub) values were determined using probit analysis. None of the synergists acted at the applied 1000 ng/grub dose. Synergist ratio was calculated as the quotient of the LD50 values of carbofuran administered alone, and with the synergist. The experiments were performed in 2-4 replica.

[3] = test system: house fly (Musca domestica); experiment: Effect of the active ingredient:synergist ratio on the synergistic activity (flies)
Procedure: Effect of the Active Ingredient:Synergist Ratio on the Synergistic Activity
Treatment was performed as described in Example 1. using Hamilton MicroLab P microdispenser. In two parallel experiments 10 female -3 day old flies were treated on the ventral side of their thorax with 0.2 μl test solution. Beside 1000-400-200-80 ng/fly fixed doses of the synergist they were treated with constant 20 ng/fly CARBOFURAN®. Selection and counting of the flies were performed under the action of CO2. After treatment the flies were kept in plastic cups covered with tulle. After 24 hours mortality % was recorded. Depending on the results the experiments were performed in 2-4 replica.

[4] = test system: house fly (Musca domestica); experiment: Synergist spectrum on house fly, topical; format: in vivo
Procedure: as §1, §2

[5] = test system: house fly (Musca domestica); settings: in vivo, topical_or_ocular, 1440 min
Procedure: Investigation of Synergistic Activity on House Fly (Musca domestica) Following Topical Application
In two parallel experiments 10 female. 2-4 day old house flies were treated on the vental side of their thorax with 0.2 μl of the test solution, with the help of Hamilton MicroLab P microdispenser. Beside fixed synergist dose of 1000 ng/fly the animals were treated with carbofuran at a dose of 20 ng/fly. For solvent cellosolve was used. Selection and counting of the flies were performed under the action of CO2. After treatment the flies were kept in plastic cups covered with tulle. Mortality after 24 hours was expressed in %.

[6] = test system: two-spotted spider mite (Tetranychus urticae); experiment: Synergist activity of compound 599 against two-spotted spider mite; format: in vivo; settings: read-out: LC50
Procedure: From the first pair of leaves of a 1 week old bean plant leaf-discs of […] diameter were cut which were treated by dipping them (5 min) into the test solution consisting of the active ingredient and the synergist in definite concentrations. For the preparation of the stock solutions of required concentration, 10% acetone as co-solvent and 0.1% Tween-80 as detergent were applied. The dried leaf-discs were placed on wet surface and they were infected with […]-up female mites per leaf. […] The experiment was performed in 4 replica.
Synergist activity of compound 599 with various specific acaricides was investigated against two-spotted spider mite (Tetranychus urticae), by the method described in Example 8.

[7] = test system: pea aphid (Acyrthosiphon pisun); experiment: Synergist activity against pea aphid, field trial; format: in vivo; settings: two days after treatment
Procedure: Synergist Activity Against Pea Aphid (Acyrthosiphon pisun)
Synergist activity of compound No. 599 was tested against pea aphid (Acyrthosiphon pisun) in field trials on small plots (10 m^2). 300 l/ha spray volume was applied using motoric sprayer (Maruyama). Efficacy was expressed by the average number of aphids/leaf before, and two days after the treatment, respectively. (Henderson and Tilton: J. Econ. Entomol., 48:157, 1955).

[8] = test system: resistant house fly, IX strain; experiment: Synergistic activity on resistant house fly, IX strain; format: in vivo, Musca domestica; settings: active ingredient alone
Procedure: (§3) Investigation of Synergistic Activity on Resistant House Fly (Musca domestica) Populations
(§4) Investigation was carried out as described in biological Example 1. LD50 values and synergist ratios were determined as given in Example 2.

[9] = test system: resistant house fly, INSEL strain; experiment: Synergistic activity on resistant house fly, INSEL strain; format: in vivo, Musca domestica; settings: active ingredient alone
Procedure: as §3, §4

For `CC#CCOC(C)c1ccc(OC)c(OC)c1` (centres unmarked) [Compound 599], the Synergist ratio ([1]; with BENDIOCARB) was > 20, the Synergist ratio ([1]; with CARBOFURAN) was > 20 and the Synergist ratio ([1]; with DIOXACARB) was > 20. For the same compound, the Synergist ratio ([1]; with ISOPROCARB) was > 20, the Synergist ratio ([1]; with PERMETHRIN) was > 10 and the Synergist ratio ([1]; with PROPOXUR) was > 20. The Synergist ratio [2] was > 5, the “24 hour mortality (%)” value ([3]; carbofuran 20 ng/fly + synergist 80 ng/fly) was 65% and the “24 hour mortality (%)” value ([3]; carbofuran 20 ng/fly + synergist 200 ng/fly) was 90%. For the same compound, the “24 hour mortality (%)” value ([3]; carbofuran 20 ng/fly + synergist 400 ng/fly) was 95%, the “24 hour mortality (%)” value ([3]; house fly, in vivo, topical_or_ocular) was 100% and the Synergist ratio ([4]; with AMINOCARB) was > 20. For the same compound, the Synergist ratio ([4]; with BENDIOCARB) was > 40, the Synergist ratio ([4]; with CARBOFURAN) was > 20 and the Synergist ratio ([4]; with DIOXACARB) was > 40. The Synergist ratio ([4]; with ESBIOL) was > 10, the Synergist ratio ([4]; with FENOBUCARB) was > 20 and the Synergist ratio ([4]; with IMIDACLOPRID) was > 5. For the same compound, the Synergist ratio ([4]; with ISOPROCARB) was > 40, the Synergist ratio ([4]; with METHOMYL) was > 10 and the Synergist ratio ([4]; with PERMETHRIN) was > 5. For the same compound, the Synergist ratio ([4]; with PIRIMICARB) was > 20, the Synergist ratio ([4]; with PROPOXUR) was > 40 and the Synergist ratio ([4]; with TETRAMETHRIN) was > 5. The Synergist ratio ([4]; with THIODICARB) was > 10 and the mortality % [5] was 100%.
With `CC(C)(C)c1ccc(CCOc2ncnc3ccccc23)cc1` [FENAZAQUIN] the LC50 ([6]; Acaricide/Synergist 1:0, 3 h) was > 1000 µg/mL and the LC50 ([6]; Acaricide/Synergist 1:0, 24 h) was 41.9 µg/mL.
For `N#Cc1nn(-c2c(Cl)cc(C(F)(F)F)cc2Cl)c(N)c1[S+]([O-])C(F)(F)F` (centres unmarked) [FIPRONIL], the “E (%)” value ([7]; dose 240 act. ingr./ha) was 94.6%.
In the case of `O=[N+]([O-])NC1=NCCN1Cc1ccc(Cl)nc1` [IMIDACLOPRID], the “E (%)” value ([7]; dose 120 act. ingr./ha) is reported as 98.4%.
With `CNC(=O)Oc1ccccc1C(C)C` [ISOPROCARB, reference compound] the LD50 [8] was > 100000 ng/fly and the LD50 [9] was > 100000 ng/fly.
`CNC(=O)ON=C(C)SC` [METHOMYL, reference compound] gave an LD50 [8] of 851 ng/fly and an LD50 [9] of 475 ng/fly.
For `Cc1nc(N(C)C)nc(OC(=O)N(C)C)c1C` [PIRIMICARB, reference compound], the LD50 [8] was > 100000 ng/fly, the LD50 [9] was > 100000 ng/fly and the “E (%)” value ([7]; dose 80 act. ingr./ha) was 86.3%. For the same compound, the “E (%)” value ([7]; dose 250 act. ingr./ha) was 93.8%.
For `CCc1nn(C)c(C(=O)NCc2ccc(C(C)(C)C)cc2)c1Cl` [TEBUFENPYRAD], the LC50 ([6]; Acaricide/Synergist 1:0, 3 h) was > 1000 µg/mL and the LC50 ([6]; Acaricide/Synergist 1:0, 24 h) was 63.4 µg/mL.
For `CCOC(=O)CSc1nc(C(C)(C)C)nn1C(=O)N(C)C` [TRIAZAMATE], the “E (%)” value ([7]; dose 50 act. ingr./ha) was 96.8%.
